We go through two compounds from ChEMBL document CHEMBL1129947, “(+)-7-Deaza-5'-noraristeromycin as an anti-trypanosomal agent” (J Med Chem, 1997).

Experiment [1] has as its system Trypanosoma brucei. Briefly: In vitro inhibitory concentration against Trypanosoma brucei LAB 110 EATRO test strain. In kind it is functional, organism-based.
For experiment [2], the system named is Trypanosoma brucei. The experiment in a line: In vitro inhibitory concentration against Trypanosoma brucei rhodesiense strain KETRI 243. In kind it is functional, organism-based.
In experiment [3] the test system is Trypanosoma brucei. Briefly: In vitro inhibitory concentration against Trypanosoma brucei rhodesiense strain KETRI 243-As-103. The format is functional, organism-based.
A further experiment addresses Adenosylhomocysteinase (Mus musculus, UniProt P50247). The experiment in a line: In vitro inhibitory concentration against purified S-Adenosyl-homocysteine hydrolase isolated from murine L929 cells.
Experiment [4] deals with Trypanosoma brucei. The experiment in a line: In vitro inhibitory concentration against Trypanosoma brucei rhodesiense strain KETRI 269. The format is functional, organism-based.

Sequence of Adenosylhomocysteinase (P50247 whole entry): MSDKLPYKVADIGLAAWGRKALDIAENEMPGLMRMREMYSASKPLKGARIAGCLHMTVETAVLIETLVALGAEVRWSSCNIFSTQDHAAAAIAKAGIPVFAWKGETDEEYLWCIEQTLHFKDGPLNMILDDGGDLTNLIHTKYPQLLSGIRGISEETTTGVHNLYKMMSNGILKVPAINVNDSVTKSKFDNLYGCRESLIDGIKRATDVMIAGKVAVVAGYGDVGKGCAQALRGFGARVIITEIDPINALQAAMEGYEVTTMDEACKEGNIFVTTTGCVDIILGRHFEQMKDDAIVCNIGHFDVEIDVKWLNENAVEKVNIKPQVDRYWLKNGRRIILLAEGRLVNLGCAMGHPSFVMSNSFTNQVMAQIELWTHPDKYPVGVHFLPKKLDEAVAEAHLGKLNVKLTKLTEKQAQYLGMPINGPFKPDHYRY

Take `Nc1ncnc2c1ccn2[C@H]1C[C@@H](O)[C@H](O)[C@@H]1O`: the half-maximal inhibitory concentration (IC50) with Trypanosoma brucei [1] is 165 nM; in the experiment on Trypanosoma brucei [2], 165 nM; with Trypanosoma brucei [3] it was 5300 nM; against Adenosylhomocysteinase it was above 500000 nM; with Trypanosoma brucei [4] it was 165 nM.
As to `Nc1ncnc2c1ccn2[C@@H]1C[C@H](O)[C@@H](O)[C@H]1O`, on Adenosylhomocysteinase, the IC50 is above 500000 nM.
